In patent US11040028B2, “Penicinotam derivative, preparation method and use thereof” (OCEAN UNIVERSITY OF CHINA, priority 2017, dated 2021):

Assays:
Type in all cases: cell-based
[1] = system: cardiac fibroblast RAT-iCell-C002; assay: Anti-fibrosis activity test: inhibition of proliferation of cardiac fibroblast RAT-iCell-C002 (CCK-8); conditions: Cardiac fibroblast, 48 h
How it was run: (§1)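 Exponentially growing cells, 2×10^4 cells/mL, attached 24 h. Dosed 48 h across concentrations (n=3). CCK-8 2 h → A450; IR vs blank; IC50.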

NF-κB = assay: Immunological activity test: inhibition of NF-κB activity; conditions: initial concentration of 30 μM; a/b isomers given as first/second symbol; read-out: IC50 (μM), inhibitory activity against NF-κB
Source text: Main references for immunological activity test of the compounds of the present application includes: Vogl, S.; Atanasov, A. G.; Binder, M.; Bulusu, M.; Zehl, M.; Fakhrudin, N.; Heiss, E. H.; Picker, P.; Wawrosch, C.; Saukel, J.; Reznicek, G.; Urban, E.; Bochkov, V.; Dirsch, V. M.; Kopp, B. J. Evid-Based Complementary Alern. Med. 2013, ID 395316. Commercially available parthenolide was utilized as a positive control.
The ability of the compounds of the present application to inhibit NF-κB activity was tested at an initial concentration of 30 μM.
The assay data for the compounds of the present application were further analyzed to determine their IC50 values.

[2] = system: human lung fibroblasts HFL1; assay: Anti-fibrosis activity test: inhibition of proliferation of human lung fibroblasts HFL1 (CCK-8); conditions: Homo sapiens, HFL1, 48 h
How it was run: as §1

[3] = system: human dermal fibroblasts CCC-ESF-1; assay: Anti-fibrosis activity test: inhibition of proliferation of human dermal fibroblasts CCC-ESF-1 (CCK-8); conditions: Fibroblast
How it was run: as §1

[4] = system: human hepatic stellate cells LX-2; assay: Anti-fibrosis activity test: inhibition of proliferation of human hepatic stellate cells LX-2 (CCK-8); conditions: Homo sapiens, 48 h
How it was run: as §1

BHK-21 cells = assay: Anti-fibrosis activity test: inhibition of BHK-21 cell proliferation (CCK-8); conditions: Mesocricetus auratus, BHK-21, 48 h
How it was run: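 Read-out: CCK-8 absorbance at 450 nm after 2 h, giving proliferation inhibition (1−Ai/Ao)×100% versus blank control, from which IC50 was derived. Cells had been treated with compounds for 48 h after 24 h adherence at 37° C. Pirfenidone served as positive control.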

[5] = system: human fibrosarcoma cells HT-1080; assay: Anti-fibrosis activity test: inhibition of proliferation of human fibrosarcoma cells HT-1080 (CCK-8); conditions: Homo sapiens, HT-1080, 48 h
How it was run: as §1

[6] = system: human embryonic lung fibroblast IMR-90; assay: Anti-fibrosis activity test: inhibition of proliferation of human embryonic lung fibroblast IMR-90 (CCK-8)
How it was run: as §1

[7] = system: mouse macrophages (RAW264.7); assay: Lipopolysaccharide-induced NO secretion in macrophages (Griess); conditions: Mus musculus, RAW264.7, 24 h, RAW264.7, LPS 1 μg/ml, a/b isomers given as first/second symbol, read-out: IC50 (μM), inhibition of lipopolysaccharide-induced NO secretion in macrophages
How it was run: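 RAW264.7 cells in DMEM with 10% FBS were treated with test compounds at several concentrations, then stimulated with LPS (1 μg/ml) for 24 hours. Nitrite in the supernatant was measured by Griess reaction at 548 nm, and percent inhibition was calculated against blank-medium controls.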

[8] = cardiac fibroblast RAT-iCell-C002, CCK-8, 48 hours
[9] = human lung fibroblasts HFL1, CCK-8, 48 hours
[10] = human dermal fibroblasts CCC-ESF-1, CCK-8, 48 hours
[11] = human hepatic stellate cells LX-2, CCK-8, 48 hours
[12] = CCK-8, 48 hours after administration
[13] = human fibrosarcoma cells HT-1080, CCK-8, 48 hours
[14] = human embryonic lung fibroblast IMR-90, CCK-8, 48 hours
[15] = Homo sapiens, CCC-ESF-1 cells, 48 h, CCK-8
[16] = Homo sapiens, IMR-90 cells, 48 h, CCK-8

SMILES | IC50 (NF-κB) | IC50 [5, 13] | IC50 [7] | IC50 ([5]; HT-1080 cells, 48 h, CCK-8) | IC50 [1, 8] | IC50 [2, 9] | IC50 [3, 10] | IC50 [4, 11] | IC50 (BHK-21 cells; [12]) | IC50 [6, 14] | IC50 ([1]; RAT-iCell-C002 cells, CCK-8) | IC50 ([2]; HFL1 cells, 48 h, CCK-8) | IC50 [3, 15] | IC50 ([4]; LX-2, 48 h, LX-2 cells, CCK-8) | IC50 (BHK-21 cells; 48 h, CCK-8) | IC50 [6, 16]
O=C1c2c(nc3ccc(F)cc3c2OCc2ccc(Cl)cc2F)-c2cccn21 [Compound 621b, 9-((4-chloro-2-fluorobenzyl)oxy)-7-fluoro-10H-pyrrolizino[1,2-b]quinolin-10-one] | 1 to 10 µM | 0.05 to 5 mM |  |  | 0.05 to 5 mM | 0.05 to 5 mM | 0.05 to 5 mM | 0.05 to 5 mM | 0.05 to 5 mM | 0.05 to 5 mM |  |  |  |  |  | 
N#Cc1ccc2nc3c(c(OCc4ccc(F)cc4)c2c1)C(=O)n1cccc1-3 [Compound 624b, 9-((4-fluorobenzyl)oxy)-10-oxo-10H-pyrrolizino[1,2-b]quinoline-7-carbonitrile] | 1 to 10 µM | 0.05 to 5 mM |  |  | 0.05 to 5 mM | < 0.05 mM | 0.05 to 5 mM | 5 to 20 mM | 0.05 to 5 mM | 0.05 to 5 mM |  |  |  |  |  | 
O=C1c2c(nc3ccccc3c2Oc2ccc(F)cc2)-c2cccn21 [Compound 18b, 9-(4-fluorophenoxy)-10H-pyrrolizino[1,2-b]quinolin-10-one] | 1 to 10 µM | 0.05 to 5 mM |  |  | 0.05 to 5 mM | 0.05 to 5 mM | 0.05 to 5 mM | 0.05 to 5 mM | 0.05 to 5 mM | 0.05 to 5 mM |  |  |  |  |  | 
O=C1c2c(nc3ccc(F)cc3c2OCc2cc(C(F)(F)F)cc(C(F)(F)F)c2)-c2cccn21 [Compound 623b, 9-((3,5-bis(trifluoromethyl)benzyl)oxy)-7-fluoro-10H-pyrrolizino[1,2-b]quinolin-10-one] | 1 to 10 µM | 0.05 to 5 mM |  |  | 0.05 to 5 mM | 0.05 to 5 mM | 0.05 to 5 mM | 0.05 to 5 mM | 0.05 to 5 mM | 0.05 to 5 mM |  |  |  |  |  | 
O=C1c2c(nc3cc(N4CCNCC4)ccc3c2OCc2ccc(F)cc2F)-c2cccn21 [Compound 622b, 9-((2,4-difluorobenzyl)oxy)-6-(piperazin-1-yl)-10H-pyrrolizino[1,2-b]quinolin-10-one] | 1 to 10 µM | 0.05 to 5 mM |  |  | 0.05 to 5 mM |  | 0.05 to 5 mM |  | 0.05 to 5 mM | 0.05 to 5 mM |  |  |  |  |  | 
O=C1c2c(n(Cc3ccc(F)cc3F)c3cc(N4CCNCC4)ccc3c2=O)-c2cccn21 [Compound 622a, 4-(2,4-Difluorobenzyl)-6-(piperazin-1-yl)-9H-pyrrolizino[1,2-b]quinoline-9,10(4H)-dione] | 1 to 10 µM | 0.05 to 5 mM |  |  | 0.05 to 5 mM | 0.05 to 5 mM | 0.05 to 5 mM |  | 0.05 to 5 mM | 0.05 to 5 mM |  |  |  |  |  | 
O=C1c2c(nc3cc(N4CCNCC4)ccc3c2OCc2cc(C(F)(F)F)cc(C(F)(F)F)c2)-c2cccn21 [Compound 631b, 9-((3,5-bis(trifluoromethyl)benzyl)oxy)-6-(piperazin-1-yl)-10H-pyrrolizino[,2-b]quinolin-10-one] | 0.1 to 1 µM |  |  |  |  |  |  |  |  |  |  |  |  |  |  | 
Cn1c2c(c(=O)c3cc(F)c(N4CCNCC4)cc31)C(=O)n1cccc1-2 [Compound 361a, 7-Fluoro-4-methyl-6-(piperazin-1-yl)-9H-pyrrolizino[1,2-b]quinoline-9,10(4H)-dione] |  | < 0.05 mM | 1 to 10 µM |  | 0.05 to 5 mM | 0.05 to 5 mM | 0.05 to 5 mM | 0.05 to 5 mM | 0.05 to 5 mM | 0.05 to 5 mM |  |  |  |  |  | 
CCn1c2c(c(=O)c3cc(F)c(N4CCNCC4)cc31)C(=O)n1cccc1-2 [Compound 329a, 4-Ethyl-7-fluoro-6-(piperazin-1-yl)-9H-pyrrolizino[1,2-b]quinoline-9,10(4H)-dione] |  | 0.05 to 5 mM | 1 to 10 µM |  | 5 to 20 mM | 0.05 to 5 mM | 0.05 to 5 mM | 0.05 to 5 mM | 0.05 to 5 mM | 0.05 to 5 mM |  |  |  |  |  | 
N#Cc1cccc2c(OCc3ccc(F)cc3)c3c(nc12)-c1cccn1C3=O [Compound 449b, 9-((4-fluorobenzyl)oxy)-10-oxo-10H-pyrrolizino[1,2-b]quinoline-5-carbonitrile] |  | 0.05 to 5 mM | 1 to 10 µM |  | 0.05 to 5 mM | 0.05 to 5 mM | 0.05 to 5 mM | 0.05 to 5 mM | 0.05 to 5 mM | 0.05 to 5 mM |  |  |  |  |  | 
CCOc1c2c(nc3cc(N4CCNCC4)c(F)cc13)-c1cccn1C2=O [Compound 329b, 9-ethoxy-7-fluoro-6-(piperazin-1-yl)-10H-pyrrolizino[1,2-b]quinolin-10-one] |  | 0.05 to 5 mM | 1 to 10 µM |  | < 0.05 mM | 0.05 to 5 mM | 0.05 to 5 mM | 0.05 to 5 mM | 0.05 to 5 mM | 0.05 to 5 mM |  |  |  |  |  | 

More lines, main results first:

IC50 (NF-κB) | IC50 [5, 13] | IC50 [7] | IC50 ([5]; HT-1080 cells, 48 h, CCK-8) | SMILES | IC50 [1, 8] | IC50 [2, 9] | IC50 [3, 10] | IC50 [4, 11] | IC50 (BHK-21 cells; [12]) | IC50 [6, 14] | IC50 ([1]; RAT-iCell-C002 cells, CCK-8) | IC50 ([2]; HFL1 cells, 48 h, CCK-8) | IC50 [3, 15] | IC50 ([4]; LX-2, 48 h, LX-2 cells, CCK-8) | IC50 (BHK-21 cells; 48 h, CCK-8) | IC50 [6, 16]
1 to 10 µM | 0.05 to 5 mM |  |  | CC(C)=CCn1c2c(c(=O)c3ccccc31)C(=O)n1cccc1-2 [Compound 9a, 4-(3-Methylbut-2-en-1-yl)-9H-pyrrolizino[1,2-b]quinoline-9,10(4H)-dione] | 0.05 to 5 mM | 0.05 to 5 mM | 5 to 20 mM | 0.05 to 5 mM | 20 to 100 mM | 0.05 to 5 mM |  |  |  |  |  | 
10 to 50 µM | 5 to 20 mM |  |  | CC(C)n1c2c(c(=O)c3ccccc31)C(=O)n1cccc1-2 [Compound 5a, 4-Isopropyl-9H-pyrrolizino[1,2-b]quinoline-9,10(4H)-dione] | < 0.05 mM | 0.05 to 5 mM | 0.05 to 5 mM | 0.05 to 5 mM | 5 to 20 mM | 0.05 to 5 mM |  |  |  |  |  | 
0.1 to 1 µM | 0.05 to 5 mM |  |  | N#Cc1ccc2c(c1)c(=O)c1c(n2Cc2ccc(F)cc2)-c2cccn2C1=O [Compound 624a, 4-(4-Fluorobenzyl)-9,10-dioxo-4,10-dihydro-9H-pyrrolizino[1,2-b]quinoline-7-carbonitrile] | 0.05 to 5 mM | < 0.05 mM | 0.05 to 5 mM | 5 to 20 mM | < 0.05 mM | 0.05 to 5 mM |  |  |  |  |  | 
10 to 50 µM | 0.05 to 5 mM |  |  | CC(C)CCn1c2c(c(=O)c3ccccc31)C(=O)n1cccc1-2 [Compound 8a, 4-Isopentyl-9H-pyrrolizino[1,2-b]quinoline-9,10(4H)-dione] | 0.05 to 5 mM | 0.05 to 5 mM | 0.05 to 5 mM | 0.05 to 5 mM | 5 to 20 mM | 5 to 20 mM |  |  |  |  |  | 
 |  | 1 to 10 µM | 0.05 to 5 mM | Cc1cc(C)c2c(O)c3c(nc2c1)C(=O)n1cccc1-3 [Compound 782b, 11-hydroxy-8,10-dimethyl-5H-pyrrolizino[2,1-b]quinolin-5-one] |  |  |  |  |  |  | 0.05 to 5 mM | 0.05 to 5 mM | 0.05 to 5 mM | 0.05 to 5 mM | 0.05 to 5 mM | 0.05 to 5 mM
 |  | 10 to 50 µM | 0.05 to 5 mM | Cc1cc2[nH]c3c(c(=O)c2cc1C)-c1cccn1C3=O [Compound 781a, 8,9-Dimethyl-5H-pyrrolizino[2,1-b]quinoline-5,11(6H)-dione] |  |  |  |  |  |  | 0.05 to 5 mM | 0.05 to 5 mM | 0.05 to 5 mM | 0.05 to 5 mM | 0.05 to 5 mM | 0.05 to 5 mM
 |  | 10 to 50 µM | 0.05 to 5 mM | Cc1cc(C)c2c(=O)c3c([nH]c2c1)C(=O)n1cccc1-3 [Compound 782a, 8,10-Dimethyl-5H-pyrrolizino[2,1-b]quinoline-5,11(6H)-dione] |  |  |  |  |  |  | 0.05 to 5 mM | 0.05 to 5 mM | 0.05 to 5 mM | 0.05 to 5 mM | 0.05 to 5 mM | 0.05 to 5 mM
 | 0.05 to 5 mM | 10 to 50 µM |  | O=C1c2c(n(Cc3ccc(F)cc3)c3c(Cl)cccc3c2=O)-c2cccn21 [Compound 481a, 5-Chloro-4-(4-fluorobenzyl)-9H-pyrrolizino[1,2-b]quinoline-9,10(4H)-dione] | 0.05 to 5 mM | 0.05 to 5 mM | 0.05 to 5 mM | 0.05 to 5 mM | < 0.05 mM | 0.05 to 5 mM |  |  |  |  |  | 
